Data: US8921385B2, “5-substituted quinazolinone derivatives and compositions comprising and methods of using the same” (Celgene Corporation, priority 2006, dated 2014)

| Compound | melting point [°C] |
| --- | --- |
| Cc1nc2cccc(CNC(=O)c3cccc(F)c3)c2c(=O)n1C1CCC(=O)NC1=O (stereo not drawn) [Example 6.52, N-[3-(2,6-Dioxo-Piperidin-3-yl)-2-Methyl-4-Oxo-3,4-Dihydro-Quinazolin-5-ylmethyl]-3-Fluoro-Benzamide] | 240 to 242 |
| Cc1nc2cccc(CNC(=O)c3ccc(C(F)(F)F)cc3)c2c(=O)n1C1CCC(=O)NC1=O (stereo not drawn) [Example 6.53, N-[3-(2,6-Dioxo-Piperidin-3-yl)-2-Methyl-4-Oxo-3,4-Dihydro-Quinazolin-5-ylmethyl]-4-Trifluoromethyl-Benzamide] | 253 to 255 |
| Cc1nc2cccc(CNC(=O)c3ccc(OC(F)(F)F)cc3)c2c(=O)n1C1CCC(=O)NC1=O (stereo not drawn) [Example 6.54, N-[3-(2,6-Dioxo-Piperidin-3-yl)-2-Methyl-4-Oxo-3,4-Dihydro-Quinazolin-5-ylmethyl]-4-Trifluoromethoxy-Benzamide] | 258 to 260 |
| Cc1nc2cccc(CNC(=O)c3ccccc3)c2c(=O)n1C1CCC(=O)NC1=O (stereo not drawn) [Example 6.55, N-[3-(2,6-Dioxo-Piperidin-3-yl)-2-Methyl-4-Oxo-3,4-Dihydro-Quinazolin-5-ylmethyl]-Benzamide] | 247 to 249 |
| Cc1nc2cccc(CNC(=O)c3ccc(Cl)c(Cl)c3)c2c(=O)n1C1CCC(=O)NC1=O (stereo not drawn) [Example 6.56, 3,4-Dichloro-N-[3-(2,6-Dioxo-Piperidin-3-yl)-2-Methyl-4-Oxo-3,4-Dihydro-Quinazolin-5-ylmethyl]-Benzamide] | 271 to 273 |
| Cc1nc2cccc(CNC(=O)c3cccc(C(F)(F)F)c3)c2c(=O)n1C1CCC(=O)NC1=O (stereo not drawn) [Example 6.57, N-[3-(2,6-Dioxo-Piperidin-3-yl)-2-Methyl-4-Oxo-3,4-Dihydro-Quinazolin-5-ylmethyl]-3-Trifluoromethyl-Benzamide] | 233 to 235 |
